From patent publication EP2181589A1, “Neurotoxic sterol glycosides” (Shaw, Christopher Ariel, priority 2008, dated 2010) come the findings set out here.

Holding throughout (type): in vivo, CD-1 mice
In one data set the test system is Heat shock protein-70. The experiment in a line: Heat shock protein-70 immunofluorescence. The settings on record: for Anti-Hsp-70 (VHLsc) / Anti-Hsp-70 (VHTsc): SG-fed vs control; for Anti-Hsp-70 (VHLsc): ventral horn lumbar spinal cord; for Anti-Hsp-70 (VHTsc): ventral horn thoracic spinal cord. As for the experimental part:
(§1) The synthetic SG was mixed with finely ground Purina Chow mouse pellets (Mouse Diet™, Purina) to create the experimental pellets with a SG content of 1000 µg per pellet. Dry materials were blended with a sterile silicon spatula. For every 5 g of standard feed, 2.5 mL of doubly-distilled water (dd)H2O was added and the dough was kneaded and round up into pellets. A single sterol glucoside containing pellet was placed in the feeding tray each morning before the addition of regular mouse chow (ad libitum). All experimental pellets were entirely consumed by the mice each day. Control mice were fed standard mouse chow pellets of identical weight with no additives. SG feeding was conducted daily for 15 weeks and mice were behaviorally monitored until sacrifice at 35 weeks (time point 1) or 52 weeks (time point 2).
Tissue-mounted slides were processed for fluorescence microscopy as follows: Sections were rinsed in coplin jars for 45 minutes at room temperature (RT) in three changes of PBS. Sections were then incubated at RT for 30 minutes in a blocking permeabilization solution made of 5% normal goat serum (NGS), 5% normal rabbit serum (NRS) or 5% BlokHen II (Aves Labs, Inc., Tigard, OR), 0.05% Triton X-100 and PBS. Subsequently, the blocking solution was tipped off and the slides were rinsed in PBS for 2 minutes. Sections were then incubated overnight in a humidified chamber at 4°C with a PBS buffered solution that contained 1% NGS or 1% NRS, 1% bovine serum albumin (BSA) and one of the following primary antibodies: (a) rabbit anti-human/mouse ATF-3 (H-90) IgG (polyclonal, 1:500; Santa Cruz Biotechnology, Inc., Santa Cruz, CA), (b) anti-activated caspase-3 IgG (monoclonal, 1:250; Chemicon International, Temecula, CA) (see FIGURE 9), (c) goat antihuman/ mouse choline acetyl transferase (ChAT) IgG (polyclonal, 1:100; Chemicon International, Temecula, CA) (see FIGURE 6), (d) rabbit anti-mouse glial fibrillary acidic protein IgG (polyclonal, 1:250; GeneTex Inc., San Antonio, TX) (see FIGURE 7), (e) rabbit antihuman/ mouse ionized calcium binding adaptor molecule 1 (IBA-1) IgG (polyclonal, 1:500; Wako Pure Chemical Industries, Ltd, Richmond, VA), (f) mouse anti-human/mouse clone AT8 PHF-1 Tau (monoclonal, 1:200; Pierce Biotechnology Inc., Rockford, IL), (g) rabbit anti-human/mouse TAR DNA-binding protein 43 (TDP43) (1:100; ProteinTech Group Inc., Chicago, IL) (See FIGURE 14), (h) chicken anti-human/mouse β-tubulin 3 (TuJ1 antigen) (polyclonal, 1:100, Aves Labs, Inc., Tigard, OR), (i) rabbit anti-mouse tyrosine hydroxylase (polyclonal, 1:500, Chemicon International, Temecula, CA or polyclonal 1:1000, Affinity BioReagents, Golden, CO) (FIGURE 10), (j) rabbit anti human/mouse anti-pJunser73 IgG (polyclonal, 1:200; Chemicon International, Temecula, CA), (k) rabbit anti human/mouse anti-HSP-70 IgG (polyclonal, 1:200; Chemicon International, Temecula, CA), or (1) rabbit anti human/mouse anti-HSP-25 IgG (polyclonal, 1:100; Chemicon International, Temecula, CA). In each experiment, additional slides were incubated with the primary antibody and the secondary antibody omitted or with secondary antibody and primary antibody omitted to test for nonspecific staining. Where appropriate, positive control slides (Alzheimer's disease patient entorhinal cortex, obtained from Drs. Claudia Schwab and Patrick McGeer of the Kinsmen Laboratory, University of British Columbia, Vancouver, BC, Canada) were also processed as above for comparison. Following overnight incubation with the primary antibody, slides were rinsed for 45 minutes at RT in three changes of PBS. […]

Data set [1] in a line: Body weights of SG-fed animals. The settings on record: SG-fed vs control, over the study. The procedure:
Five-month old male CD-1 mice (30.1-35.7 g, 7.5 cm - 8.8 cm) were purchased from Charles River (Wilmington, MA). Adult mice were chosen to mimic the mean age of onset of ALS-PDC (Kurland, 1988; Kurland et al., 1994). Thirty mice for the SG study were randomly divided into 2 groups (14 control and 16 experimental animals). All animals were housed singly in a virus-free barrier facility in a room maintained at 22°C under a 12 hour light/dark cycle. The mice were provided ad libitum access to food and water.
as §1

In a further data set the test system is Cytochrome c oxidase. Description: Cytochrome c oxidase histochemistry. The settings on record: for Cytochrome c oxidase activity: SG-fed vs control. As for the experimental part:
as §1
Tissue-mounted slides were processed for […] in a manner adapted from Seligman et al. (1968) and Wong-Riley (1979). Sections were rinsed in coplin jars for 15 minutes at RT in three changes of PBS and subsequently incubated with a media comprised of 50 mg of 3,3'-diaminobenzidine tetrahydrochloride (DAB) (DAB substrate system, Vector Laboratories, Burlingame, CA, USA), 90 mL 0.1M phosphate buffer, 20 mg cytochrome c (type III, Sigma-Aldrich Co., Oakville, ON, Canada), and 4 g of sucrose in a dish submerged in a water bath maintained at 37°C in the dark for 2 hours. The sections were monitored closely for the brown reaction product to appear within the tissue. Once a medium-brown color was achieved, slides were removed from the incubation media and rinsed for 15 minutes in three changes of PBS to stop the reaction. This was followed with a 2 minutes rinse in distilled water to remove residue from the slides. The slides were dried under a fume hood and cover-slipped with Entellen (Merck, Darmstadt, Germany).
The numbers of immunoreactive somata or inclusions were counted across the ventral horn of the spinal cord, across brain hemispheres, or per dorsal or ventral root with the 40x objective lens in a 600 µm / 600 µm area within region perimeters defined by a mouse brain atlas (2001). For each animal, eight cross-sections per spinal cord or brain region were studied. […] For quantification of the level of mitochondrial activity (cytochrome c oxidase labelling) in the lumbar spinal cord or tyrosine hydroxylase immunoreactivity in the substantia nigra pars compacta and striatal sections, images captured using the Motic B5 Professional Series 3.0 microscope (Motic Instruments Inc., Richmond, ON) and analyzed using Motic B5 Professional, Motic Images Advanced 3.0 (Motic Instruments Inc., Richmond, ON) were scanned into a TIFF format file and analysed using the NIH Image J 1.37 software to measure density levels of antibody labelling. […]

For the next data set, the system named is Active Caspase-3. The experiment in a line: Active caspase-3 labelling (apoptotic activity). As for the experimental part:
as §1
(§2) Tissue-mounted slides were processed for fluorescence microscopy as follows: Sections were rinsed in coplin jars for 45 minutes at room temperature (RT) in three changes of PBS. Sections were then incubated at RT for 30 minutes in a blocking permeabilization solution made of 5% normal goat serum (NGS), 5% normal rabbit serum (NRS) or 5% BlokHen II (Aves Labs, Inc., Tigard, OR), 0.05% Triton X-100 and PBS. Subsequently, the blocking solution was tipped off and the slides were rinsed in PBS for 2 minutes. […]

Data set [2] deals with Ionized calcium-binding adaptor molecule-1. Description: IBA-1 immunofluorescence (microglia proliferation). To be noted: SG-fed group over time, 35 to 52 wk. As for the experimental part: as §1, §2
Setting [3] is: SG-fed group over time, 35 to 52 wk.

SMILES strings stand for the structures. “Also recorded” adds a separate entry of the source. Marks after values point to notes of the source that are not given here.

For the compound `CCC(C=CC(C)C1CCC2C3CC=C4CC(OC5OC(CO)C(O)C(O)C5O)CCC4(C)C3CCC12C)C(C)C` (stereo not drawn) [SG], the “Anti-Hsp-70 Lsc” value with Heat shock protein-70 (setting [3]) is recorded as “Anti-Hsp-70 Lsc (SG-fed group over time) (ns, p=0.1223)”. Besides, the “Anti-Hsp-70 Tsc” value in the data set with Heat shock protein-70 (setting [3]) is recorded as “Anti-Hsp-70 Tsc (SG-fed group over time) (ns, p=0.8319)”. Further, the “Anti-Hsp-70 (VHLsc)” value was “Anti-Hsp-70: +1036%***” in the data set with Heat shock protein-70 (time-point 1, 35 wk) and “Anti-Hsp-70: +425%* (VHLsc)” in the data set on Heat shock protein-70 (time-point 2, 52 wk). In addition, the “Anti-Hsp-70 (VHTsc)” value in the data set on Heat shock protein-70 (time-point 1, 35 wk) is reported as “Anti-Hsp-70: (ns, p=0.9697)”; with Heat shock protein-70 (time-point 2, 52 wk) it was “Anti-Hsp-70: (ns, p=0.2793)”. In data set [1], the Body weights result was “not significantly different; also recorded: normal weight gain”. The “Cytochrome c oxidase Activity, Optical density” value with Cytochrome c oxidase (setting [3]) is listed as “Optical density (SG-fed group over time): -36%**”. For the same compound, the “Cytochrome c oxidase activity” value with Cytochrome c oxidase (35 or 52 weeks) is “no significant differences”; in the data set with Cytochrome c oxidase (time-point 1, 35 wk), “(ns)”; in the data set on Cytochrome c oxidase (time-point 2, 52 wk) it was “(ns)”. In the data set with Active Caspase-3 (setting [3]), the Apoptotic cells entry is “Apoptotic cells (SG-fed group over time) (ns)”. Further, in the data set on Active Caspase-3 (SG-fed vs control, 52 weeks (figure legend)), the “number of apoptotic cells” value was “did not reach significance”. Further, the “Anti-active caspase 3” value in the data set on Active Caspase-3 (SG-fed vs control, time-point 2, 52 wk) was “(ns)”. For the same compound, the Anti-IBA-1 immunoreactive cells entry in data set [2] was “Anti-IBA-1 immunoreactive cells (SG-fed group over time) (ns)”.
